SMILES strings stand for the structures.

Data on 11 molecules can be found in patent US20250195536A1, “BICYCLOOCTANE KRAS INHIBITORS” (Incyte Corporation, priority 2023, published 2025).

Test [1] deals with KRAS G12D (Homo sapiens, UniProt P01116, G12D). In words: GDP-GTP exchange assay (KRAS G12D). The format is biochemical. The note with it: bodipy-GDP/GppNHp exchange with SOS1; 4 h pre-incubation, 2 h reaction. Here is the method: (§1) The inhibitor potency of the exemplified compounds was determined in a fluorescence based guanine nucleotide exchange assay, which measures the exchange of bodipy-GDP (fluorescently labeled GDP) for GppNHp (Non-hydrolyzable GTP analog) to generate the active state of KRAS in the presence of SOS1 (guanine nucleotide exchange factor). Inhibitors were serially diluted in DMSO and a volume of 0.1 μL was transferred to the wells of a black low volume 384-well plate. 5 μL/well volume of bodipy-loaded KRAS G12D diluted to 2.5 nM in assay buffer (25 mM Hepes pH 7.5, 50 mM NaCl, 10 mM MgCl2 and 0.01% Brij-35) was added to the plate and pre-incubated with inhibitor for 4 h at r.t. Appropriate controls (enzyme with no inhibitor or with a G12D inhibitor) were included on the plate. The exchange was initiated by the addition of a 5 μL/well volume containing 1 mM GppNHp and 300 nM SOS1 in assay buffer. The 10 μL/well reaction concentration of the bodipy-loaded KRAS G12D, GppNHp, and SOS1 were 2.5 nM, 500 μM, and 150 nM, respectively. The reaction plates were incubated at r.t. for 2 h, a time estimated for complete GDP-GTP exchange in the absence of inhibitor. For the KRAS G12V mutant, similar guanine nucleotide exchange assays were used with 2.5 nM as final concentration for the bodipy loaded KRAS proteins and 3 h incubation after adding GppNHp-SOS1 mixture. A cyclic peptide described to selectively bind G12D mutant (Sakamoto et al., BBRC 484.3 (2017), 605-611) or internal compounds with confirmed binding were used as positive controls in the assay plates. Fluorescence intensities were measured on a PheraStar plate reader instrument (BMG Labtech) with excitation at 485 nm and emission at 520 nm.
Chain of KRAS G12D (P01116 1-188 isoform P01116-2 G12D): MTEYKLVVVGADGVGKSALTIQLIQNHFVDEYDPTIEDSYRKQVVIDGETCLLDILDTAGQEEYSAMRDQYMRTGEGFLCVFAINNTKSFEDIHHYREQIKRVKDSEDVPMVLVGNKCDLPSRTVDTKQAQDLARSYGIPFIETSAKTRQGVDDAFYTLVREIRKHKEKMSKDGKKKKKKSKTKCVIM
(§2) Either GraphPad prism or Genedata Screener SmartFit was used to analyze the data. The IC50 values were derived by fitting the data to a four parameter logistic equation producing a sigmoidal dose-response curve with a variable Hill coefficient.
(§3) The symbol “⬆” indicates IC50 100 nM, “⬆⬆” indicates IC50 >100 nM but ≤1 μM; and “⬆⬆⬆” indicates IC50 is >1 μM but ≤5 μM, “⬆⬆⬆⬆” indicates IC50 is >5 μM but ≤10 μM. “NA” indicates IC50 not available.

The target in test [2] is KRAS G12V (Homo sapiens, UniProt P01116, G12V). In words: GDP-GTP exchange assay (KRAS G12V). The format is biochemical. The settings on record: bodipy-GDP/GppNHp exchange with SOS1; 3 h incubation after GppNHp-SOS1. As to the method:
as §1, §2, §3
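Also: one dagger IC50 up to 100 nM and two daggers above 100 nM up to 1 μM.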

Chain of KRAS G12V (P01116 1-188 isoform P01116-2 G12V): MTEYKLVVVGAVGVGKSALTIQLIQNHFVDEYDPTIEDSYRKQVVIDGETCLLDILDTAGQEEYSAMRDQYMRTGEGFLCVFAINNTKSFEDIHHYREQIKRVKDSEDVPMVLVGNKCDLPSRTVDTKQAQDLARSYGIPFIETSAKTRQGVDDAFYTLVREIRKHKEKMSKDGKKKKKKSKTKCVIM

For the molecule `Cc1nc2c(F)c(-c3cccc(Cl)c3Cl)c(CCC#N)cc2c2c1cc([C@H]1[C@H]3C[C@H](CN(c4cnc5cccnc5c4)C3)N1C(=O)C1CC1)n2[C@H]1[C@H]2CN[C@@H]1C2` (atropisomer, axis not shown; (Ra)) [Example 6, 3-((Ra)-1-((1R,4R,5S)-2-azabicyclo[2.1.1]hexan-5-yl)-2-((1S,5R,7R)-6-(cyclopropanecarbonyl)-3-(1,5-naphthyridin-3-yl)-3,6-diazabicyclo[3.2.1]octan-7-yl)-7-(2,3-dichlorophenyl)-6-fluoro-4-methyl-1H-pyrrolo[3,2-c]quinolin-8-yl)propanenitrile], in test [1], the “G12D_exchange (KRAS_G12D exchange assay IC50)” value (shortened to “G12D_exchange”) is on record as “†”. Besides, the “G12V_exchange (KRAS_G12V exchange assay IC50)” value (“G12V_exchange” below) in test [2] was “†”.

Consider `Cc1nc2c(F)c(-c3cccc(Cl)c3Cl)c(CCC#N)cc2c2c1cc([C@H]1[C@H]3C[C@H](CN(c4cnn(C)c4)C3)N1C(=O)C1CC1)n2[C@H]1[C@H]2CN[C@@H]1C2` (atropisomer, axis not shown; (Ra)) [Example 11, 3-((Ra)-1-((1R,4R,5S)-2-azabicyclo[2.1.1]hexan-5-yl)-2-((1S,5R,7R)-6-(cyclopropanecarbonyl)-3-(1-methyl-1H-pyrazol-4-yl)-3,6-diazabicyclo[3.2.1]octan-7-yl)-7-(2,3-dichlorophenyl)-6-fluoro-4-methyl-1H-pyrrolo[3,2-c]quinolin-8-yl)propanenitrile], for which the “G12D_exchange” value in test [1] is given as “†”. Also, the “G12V_exchange” value in test [2] was “†”.

Turning to `Cc1nc2c(F)c(-c3cccc(Cl)c3Cl)c(CCC#N)cc2c2c1cc([C@H]1[C@H]3C[C@H](CN(c4ccccc4C(F)(F)F)C3)N1C(=O)C1CC1)n2[C@H]1[C@H]2CN[C@@H]1C2` (atropisomer, axis not shown; (Ra)) [Example 16, 3-((Ra)-1-((1R,4R,5S)-2-azabicyclo[2.1.1]hexan-5-yl)-2-((1S,5R,7R)-6-(cyclopropanecarbonyl)-3-(2-(trifluoromethyl)phenyl)-3,6-diazabicyclo[3.2.1]octan-7-yl)-7-(2,3-dichlorophenyl)-6-fluoro-4-methyl-1H-pyrrolo[3,2-c]quinolin-8-yl)propanenitrile], the “G12D_exchange” value in test [1] is recorded as “†††”. For the same molecule, in test [2], the “G12V_exchange” value was “†††”.

With `Cc1nc2c(F)c(-c3cccc(Cl)c3Cl)c(CCC#N)cc2c2c1cc([C@H]1[C@H]3C[C@H](CN(c4cc(C(F)(F)F)cc(C(F)(F)F)c4)C3)N1C(=O)C1CC1)n2[C@H]1[C@H]2CN[C@@H]1C2` (atropisomer, axis not shown; (Ra)) [Example 18, 3-((Ra)-1-((1R,4R,5S)-2-azabicyclo[2.1.1]hexan-5-yl)-2-((1S,5R,7R)-3-(3,5-bis(trifluoromethyl)phenyl)-6-(cyclopropanecarbonyl)-3,6-diazabicyclo[3.2.1]octan-7-yl)-7-(2,3-dichlorophenyl)-6-fluoro-4-methyl-1H-pyrrolo[3,2-c]quinolin-8-yl)propanenitrile], the “G12D_exchange” value in test [1] is “††”. For the same molecule, in test [2], the “G12V_exchange” value is listed as “†”.

Regarding `Cc1nc2c(F)c(-c3cccc(Cl)c3Cl)c(CCC#N)cc2c2c1cc([C@H]1[C@H]3C[C@H](CN(c4ccncc4)C3)N1C(=O)C1CC1)n2[C@H]1[C@H]2CN[C@@H]1C2` (atropisomer, axis not shown; (Ra)) [Example 37, 3-((Ra)-1-((1R,4R,5S)-2-azabicyclo[2.1.1]hexan-5-yl)-2-((1S,5R,7R)-6-(cyclopropanecarbonyl)-3-(pyridin-4-yl)-3,6-diazabicyclo[3.2.1]octan-7-yl)-7-(2,3-dichlorophenyl)-6-fluoro-4-methyl-1H-pyrrolo[3,2-c]quinolin-8-yl)propanenitrile], the “G12D_exchange” value in test [1] is on record as “†”. Further, the “G12V_exchange” value in test [2] is recorded as “†”.

For `Cc1nc2c(F)c(-c3cccc(Cl)c3Cl)c(CCC#N)cc2c2c1cc([C@H]1[C@H]3C[C@H](CN(c4cccc(=O)n4C)C3)N1C(=O)C1CC1)n2[C@H]1[C@H]2CN[C@@H]1C2` (atropisomer, axis not shown; (Ra)) [Example 57, 3-((Ra)-1-((1R,4R,5S)-2-azabicyclo[2.1.1]hexan-5-yl)-2-((1S,5R,7R)-6-(cyclopropanecarbonyl)-3-(1-methyl-6-oxo-1,6-dihydropyridin-2-yl)-3,6-diazabicyclo[3.2.1]octan-7-yl)-7-(2,3-dichlorophenyl)-6-fluoro-4-methyl-1H-pyrrolo[3,2-c]quinolin-8-yl)propanenitrile], the “G12D_exchange” value in test [1] is recorded as “††”. In addition, the “G12V_exchange” value in test [2] was “†”.

Turning to `Cc1nc2c(F)c(-c3cccc(Cl)c3Cl)c(CCC#N)cc2c2c1cc([C@H]1[C@H]3C[C@H](CN(c4ccnc(C#N)c4)C3)N1C(=O)C1CC1)n2[C@H]1[C@H]2CN[C@@H]1C2` (atropisomer, axis not shown; (Ra)) [Example 63, 4-((1S,5R,7R)-7-((Ra)-1-((1R,4R,5S)-2-azabicyclo[2.1.1]hexan-5-yl)-8-(2-cyanoethyl)-7-(2,3-dichlorophenyl)-6-fluoro-4-methyl-1H-pyrrolo[3,2-c]quinolin-2-yl)-6-(cyclopropanecarbonyl)-3,6-diazabicyclo[3.2.1]octan-3-yl)picolinonitrile], the “G12D_exchange” value in test [1] was “†”. In addition, the “G12V_exchange” value in test [2] is reported as “†”.

Consider `Cc1nc2c(F)c(-c3cccc(Cl)c3Cl)c(CCC#N)cc2c2c1cc([C@H]1[C@H]3C[C@H](CN(c4cc(C)n(C)c(=O)c4)C3)N1C(=O)C1CC1)n2[C@H]1[C@H]2CN[C@@H]1C2` (atropisomer, axis not shown; (Ra)) [Example 66, 3-((Ra)-1-((1R,4R,5S)-2-azabicyclo[2.1.1]hexan-5-yl)-2-((1S,5R,7R)-6-(cyclopropanecarbonyl)-3-(1,6-dimethyl-2-oxo-1,2-dihydropyridin-4-yl)-3,6-diazabicyclo[3.2.1]octan-7-yl)-7-(2,3-dichlorophenyl)-6-fluoro-4-methyl-1H-pyrrolo[3,2-c]quinolin-8-yl)propanenitrile], for which the “G12D_exchange” value in test [1] is reported as “†”. Moreover, the “G12V_exchange” value in test [2] was “†”.

With `Cc1c(F)ccnc1N1C[C@@H]2C[C@H](C1)N(C(=O)C1CC1)[C@H]2c1cc2c(C)nc3c(F)c(-c4cccc(Cl)c4Cl)c(CCC#N)cc3c2n1[C@H]1[C@H]2CN[C@@H]1C2` (atropisomer, axis not shown; (Ra)) [Example 75, 3-((Ra)-1-((1R,4R,5S)-2-azabicyclo[2.1.1]hexan-5-yl)-2-((1S,5R,7R)-6-(cyclopropanecarbonyl)-3-(4-fluoro-3-methylpyridin-2-yl)-3,6-diazabicyclo[3.2.1]octan-7-yl)-7-(2,3-dichlorophenyl)-6-fluoro-4-methyl-1H-pyrrolo[3,2-c]quinolin-8-yl)propanenitrile], the “G12D_exchange” value in test [1] is recorded as “††”. Further, the “G12V_exchange” value in test [2] is “†”.

For `COc1nccc(N2C[C@@H]3C[C@H](C2)N(C(=O)C2CC2)[C@H]3c2cc3c(C)nc4c(F)c(-c5cccc(Cl)c5Cl)c(CCC#N)cc4c3n2[C@H]2[C@H]3CN[C@@H]2C3)c1C` (atropisomer, axis not shown; (Ra)) [Example 77, 3-((Ra)-1-((1R,4R,5S)-2-azabicyclo[2.1.1]hexan-5-yl)-2-((1S,5R,7R)-6-(cyclopropanecarbonyl)-3-(2-methoxy-3-methylpyridin-4-yl)-3,6-diazabicyclo[3.2.1]octan-7-yl)-7-(2,3-dichlorophenyl)-6-fluoro-4-methyl-1H-pyrrolo[3,2-c]quinolin-8-yl)propanenitrile], the “G12D_exchange” value in test [1] is listed as “††”. Further, in test [2], the “G12V_exchange” value is recorded as “†”.

Turning to `Cc1nc2c(F)c(-c3cccc(Cl)c3Cl)c(CCC#N)cc2c2c1cc([C@H]1[C@H]3C[C@H](CN(c4cc(C(C)(F)F)ncn4)C3)N1C(=O)CO)n2[C@H]1[C@H]2CN[C@@H]1C2` (atropisomer, axis not shown; (Ra)) [Example 129, 3-((Ra)-1-((1R,4R,5S)-2-azabicyclo[2.1.1]hexan-5-yl)-7-(2,3-dichlorophenyl)-2-((1 S,5R,7R)-3-(6-(1,1-difluoroethyl)pyrimidin-4-yl)-6-(2-hydroxyacetyl)-3,6-diazabicyclo[3.2.1]octan-7-yl)-6-fluoro-4-methyl-1H-pyrrolo[3,2-c]quinolin-8-yl)propanenitrile], in test [2], the “G12V_exchange” value was “†”.
